≈ marks a conversion by molar mass, not a printed value. Like-named read-outs stand apart in the source and are kept apart here.
Legend:
[1] = tested on: reference Gram-positive bacteria; experiment: Broth microdilution, summary over the Gram-positive panel; type: cell-based; settings: read-out: MIC
From the text: (§1) In vitro antimicrobial activity assays - Methodology
(§2) The examined compounds 1 - 24 were screened in vitro for antibacterial and antifungal activities using the broth microdilution method according to procedure reported earlier by our research group and European Committee on Antimicrobial Susceptibility Testing (EUCAST) and Clinical and Laboratory Standards Institute (CLSI) guidelines against a panel of reference and clinical or saprophytic strains of microorganisms, in-cluding Gram-positive bacteria, Staphylococcus aureus ATCC 43300 (Methicillin Resistant S. aureus – MRSA), Staphylococcus aureus ATCC 29213 (Methicillin Susceptible S. aureus – MSSA), Staphylococcus epidermidis ATCC 12228, Enterococcus faecalis ATCC 29212, Micro-coccus luteus ATCC 10240, Bacillus subtilis ATCC 6633 and Bacillus cereus ATCC 10876), Gram-negative bacteria (Bordetella bronchiseptica ATCC 4617, Escherichia coli ATCC 25922, Klebsiella pneumoniae ATCC 13883, Proteus mirabilis ATCC 12453, Salmonella typhimurium ATCC 14028 and Pseudomonas aeruginosa ATCC 9027) and fungi belonging to yeasts (Can-dida albicans ATCC 10231, Candida albicans ATCC 2091, Candida parapsilosis ATCC 22019, Candida glabrata ATCC 90030 and Candida krusei ATCC 14243). The microorganisms be-longing to ATCC came from American Type Culture Collection, routinely used for the evaluation of antimicrobials. […]
Samples containing examined compounds were dissolved in dimethyl sulfoxide (DMSO). […]
(§3) Subsequently, the MIC (Minimal Inhibitory Concentration) of the compounds was ex-amined by the microdilution broth method, using their two-fold dilutions in Mueller- […]
(§4) Hinton broth or (for bacteria) and RPMI 1640 broth with MOPS (for fungi) prepared in 96-well polystyrene plates. Final concentrations of the compounds ranged from 1000 to 0.488 µg/ml. Microbial suspensions were prepared in 0.85% NaCl with an optical density of 0.5 McFarland standard. Next each bacterial or fungal suspension was added per each well containing broth and various concentrations of the examined compounds. After incuba-

[2] = tested on: Micrococcus luteus ATCC 10240; experiment: Broth microdilution MIC/MBC; type: cell-based; settings: for MBC: ATCC10240
In short: (§5)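 Compounds in DMSO were two-fold diluted in Mueller-Hinton broth (bacteria) or RPMI 1640 with MOPS (fungi), final 1000 to 0.488 µg/ml.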

[3] = tested on: Salmonella typhimurium ATCC 14028; experiment: Broth microdilution MIC/MBC; type: cell-based; settings: for MBC / MIC: Salmonella enterica
In short: as §5

[4] = tested on: Staphylococcus epidermidis ATCC 12228; experiment: Broth microdilution MIC/MBC; type: cell-based; settings: for MBC: ATCC12228; for MIC: ATCC12228, read-out: MIC
In short: as §5

[5] = tested on: Proteus mirabilis ATCC 12453; experiment: Broth microdilution MIC/MBC; type: cell-based; settings: for MBC / MIC: ATCC12453
In short: as §5

[6] = tested on: Pseudomonas aeruginosa ATCC 9027; experiment: Broth microdilution MIC/MBC; type: cell-based; settings: ATCC9027
In short: as §5

[7] = tested on: Staphylococcus aureus ATCC 43300; experiment: Broth microdilution MIC/MBC; type: cell-based; settings: Staphylococcus aureus ATCC 43300 (MRSA)
In short: as §5

[8] = tested on: Staphylococcus aureus ATCC 29213; experiment: Broth microdilution MIC/MBC; type: cell-based; settings: for MBC / MIC: ATCC29213
In short: as §5

[9] = tested on: Escherichia coli ATCC 25922; experiment: Broth microdilution MIC/MBC; type: cell-based; settings: for MBC / MIC: ATCC25922
In short: as §5

[10] = tested on: Klebsiella pneumoniae ATCC 13883; experiment: Broth microdilution MIC/MBC; type: cell-based; settings: for MBC / MIC: ATCC13883
In short: as §5

[11] = tested on: Bordetella bronchiseptica ATCC 4617; experiment: Broth microdilution MIC/MBC; type: cell-based; settings: for MBC / MIC: ATCC4617
In short: as §5

[12] = tested on: Bacillus cereus ATCC 10876; experiment: Broth microdilution MIC/MBC; type: cell-based; settings: for MBC: ATCC10876; for MIC: ATCC10876, read-out: MIC
In short: as §5

[13] = tested on: Enterococcus faecalis ATCC 29212; experiment: Broth microdilution MIC/MBC; type: cell-based; settings: for MBC: ATCC29212, read-out: MBC; for MIC: ATCC29212, read-out: MIC
In short: as §5

[14] = tested on: Bacillus subtilis ATCC 6633; experiment: Broth microdilution MIC/MBC; type: cell-based; settings: for MBC: ATCC6633
In short: as §5

[15] = tested on: Gram-negative bacteria; experiment: Broth microdilution, summary over the Gram-negative panel; type: cell-based
From the text: as §1
as §2, with “antimicrobials. All the used microbial cultures were first subcultured on nu-trient agar or Sabouraud agar at 35°C for 18-24 h or 30°C for 24-48 h for bacteria and fungi,” for “antimicrobials.”
The surface of Mueller-Hinton agar (for bacteria) and RPMI 1640 with MOPS (for fungi) were inoculated with the suspensions of bacterial or fungal species. Microbial suspensions were prepared in sterile saline with an optical density of McFarland standard scale 0.5.
Samples containing examined compounds were dissolved in dimethyl sulfoxide (DMSO).
Furthermore, bacterial and fungal suspensions were put onto Petri dishes with solid me-dia containing 2 mg/mL of the tested compounds followed incubation at 37°C for 24h and 30°C for 48h for bacteria and fungi, respectively. The inhibition of microbial growth was judged by comparison with a control culture prepared without any sample tested. Ciprof-loxacin, vancomycin, nitrofurantoin, cefuroxime, ampicillin or nystatin (Sigma) were used as a reference antibacterial or antifungal compounds, respectively.
as §3, §4

[16] = tested on: Candida albicans ATCC 2091; experiment: Broth microdilution MIC/MFC; type: cell-based; settings: for MIC: ATCC2091, read-out: MIC
In short: as §5

[17] = tested on: Candida glabrata ATCC 90030; experiment: Broth microdilution MIC/MFC; type: cell-based; settings: for MIC: ATCC90030, read-out: MIC
In short: as §5

[18] = tested on: Candida parapsilosis ATCC 22019; experiment: Broth microdilution MIC/MFC; type: cell-based; settings: for MIC: ATCC22019, read-out: MIC
In short: as §5

[19] = tested on: Candida albicans ATCC 10231; experiment: Broth microdilution MIC/MFC; type: cell-based; settings: for MIC: ATCC10231, read-out: MIC
In short: as §5

[20] = tested on: Candida krusei ATCC 14243; experiment: Broth microdilution MIC/MFC; type: cell-based; settings: Pichia kudriavzevii, ATCC14243, read-out: MIC
In short: as §5

Work on `Cc1cccc(/C=N/NC(=O)c2ccc(O)cc2O)c1` [Compound 2, 2,4-dihydroxy-N-[(3-methylphenyl)methylidene]benzohydrazide] yielded an MIC [1] of 15.6 to 1000 µg/mL (≈ 57.8 to 3700 µM), an MBC/MIC [2] of 8 and an MIC [2] of 31.25 µg/mL (≈ 116 µM). The MBC [2] was 250 µg/mL (≈ 925 µM), the MIC ([2]; ATCC10240, read-out: MIC) was 31.2 µg/mL (≈ 116 µM) and the MBC/MIC [3] was greater than 1. For the same compound, the MBC [3] was greater than 1000 µg/mL, the MIC [3] was 1000 µg/mL (≈ 3700 µM) and the MBC/MIC [4] was 2. For the same compound, the MBC [4] was 500 µg/mL (≈ 1850 µM), the MIC [4] was 250 µg/mL (≈ 925 µM) and the MBC/MIC [5] was greater than 1. It also gave an MBC [5] greater than 1000 µg/mL, an MIC [5] of 1000 µg/mL (≈ 3700 µM) and an MIC [6] greater than 1000 µg/mL. It also gave an MBC [7] of 500 µg/mL (≈ 1850 µM), an MBC/MIC [7] of 2 and an MIC [7] of 250 µg/mL (≈ 925 µM). It also gave an MBC/MIC [8] of 1, an MBC [8] of 250 µg/mL (≈ 925 µM) and an MIC [8] of 250 µg/mL (≈ 925 µM). The MBC/MIC [9] was greater than 1, the MBC [9] was greater than 1000 µg/mL and the MIC [9] was 1000 µg/mL (≈ 3700 µM). The MBC/MIC [10] was greater than 1, the MBC [10] was greater than 1000 µg/mL and the MIC [10] was 1000 µg/mL (≈ 3700 µM). The MBC/MIC [11] was greater than 1, the MBC [11] was greater than 1000 µg/mL and the MIC [11] was 1000 µg/mL (≈ 3700 µM). For the same compound, the MBC/MIC [12] was 2, the MBC [12] was 250 µg/mL (≈ 925 µM) and the MIC [12] was 125 µg/mL (≈ 462 µM). It also gave an MBC/MIC [13] of 1, an MBC [13] of 500 µg/mL (≈ 1850 µM) and an MIC [13] of 500 µg/mL (≈ 1850 µM). It also gave an MBC/MIC [14] of 8, an MIC [14] of 62.5 µg/mL (≈ 231 µM) and an MBC [14] of 500 µg/mL (≈ 1850 µM). For the same compound, the MIC ([14]; ATCC6633, read-out: MIC) was 62.5 µg/mL (≈ 231 µM), the MBC [15] was greater than 1000 µg/mL and the MIC [15] was 500 to 1000 µg/mL (≈ 1850 to 3700 µM). The MIC [16] was greater than 1000 µg/mL, the MFC/MIC [17] was 2 and the MFC ([17]; Nakaseomyces glabratus, ATCC90030, read-out: MFC) was 500 µg/mL (≈ 1850 µM). For the same compound, the MIC ([17]; Nakaseomyces glabratus) was 250 µg/mL (≈ 925 µM), the MFC/MIC [18] was greater than 2 and the MFC ([18]; Lodderomyces parapsilosis, ATCC22019, read-out: MFC) was greater than 1000 µg/mL. For the same compound, the MIC ([18]; Lodderomyces parapsilosis) was 500 µg/mL (≈ 1850 µM), the MIC [19] was greater than 1000 µg/mL and the MIC [20] was greater than 1000 µg/mL.
In the case of `O=C(N/N=C/c1cc(Br)c(O)c(Br)c1)c1ccc(O)cc1O` [Compound 17, N-[(3,5-dibromo-4-hydroxyphenyl)methylidene]-2,4-dihydroxybenzohydrazide], the MIC [1] is reported as 15.6 to 1000 µg/mL (≈ 36.3 to 2330 µM), the MBC/MIC [2] is reported as greater than 8 and the MBC [2] is reported as greater than 1000 µg/mL. It also gave an MIC ([2]; ATCC10240, read-out: MIC) of 125 µg/mL (≈ 291 µM), an MBC/MIC [3] greater than 1 and an MBC [3] greater than 1000 µg/mL. The MIC [3] was 1000 µg/mL (≈ 2330 µM), the MBC/MIC [4] was greater than 8 and the MBC [4] was greater than 1000 µg/mL. For the same compound, the MIC [4] was 250 µg/mL (≈ 581 µM), the MBC/MIC [5] was greater than 1 and the MBC [5] was greater than 1000 µg/mL. It also gave an MIC [5] of 1000 µg/mL (≈ 2330 µM), an MIC [6] greater than 1000 µg/mL and an MBC [7] greater than 1000 µg/mL. It also gave an MBC/MIC [7] greater than 16, an MIC [7] of 62.5 µg/mL (≈ 145 µM) and an MBC/MIC [8] of 32. The MBC [8] was greater than 1000 µg/mL, the MIC [8] was 31.2 µg/mL (≈ 72.7 µM) and the MBC/MIC [9] was greater than 1. The MBC [9] was greater than 1000 µg/mL, the MIC [9] was 1000 µg/mL (≈ 2330 µM) and the MBC/MIC [10] was greater than 1. For the same compound, the MBC [10] was greater than 1000 µg/mL, the MIC [10] was 1000 µg/mL (≈ 2330 µM) and the MBC/MIC [11] was greater than 1. It also gave an MBC [11] greater than 1000 µg/mL, an MIC [11] of 1000 µg/mL (≈ 2330 µM) and an MBC/MIC [12] greater than 4. For the same compound, the MBC [12] was greater than 1000 µg/mL, the MIC [12] was 250 µg/mL (≈ 581 µM) and the MBC/MIC [13] was greater than 1. It also gave an MBC [13] greater than 1000 µg/mL, an MIC [13] of 500 µg/mL (≈ 1160 µM) and a melting point of 260 °C. It also gave an MBC/MIC [14] greater than 8, an MBC [14] greater than 1000 µg/mL and an MIC ([14]; ATCC6633, read-out: MIC) of 125 µg/mL (≈ 291 µM). The MBC [15] was greater than 1000 µg/mL, the MIC [15] was 500 to 1000 µg/mL (≈ 1160 to 2330 µM) and the MFC/MIC [16] was greater than 1. It also gave an MFC ([16]; ATCC2091, read-out: MFC) greater than 1000 µg/mL, an MIC [16] of 1000 µg/mL (≈ 2330 µM) and an MIC ([17]; Nakaseomyces glabratus) greater than 1000 µg/mL. It also gave an MIC ([18]; Lodderomyces parapsilosis) greater than 1000 µg/mL, an MFC/MIC [19] greater than 1 and an MFC ([19]; ATCC10231, read-out: MFC) greater than 1000 µg/mL. For the same compound, the MIC [19] was 1000 µg/mL (≈ 2330 µM) and the MIC [20] was greater than 1000 µg/mL.

From paper PMC10743905, “Design, Synthesis, and In Vitro and In Vivo Bioactivity Studies of Hydrazide–Hydrazones of 2,4-Dihydroxybenzoic Acid” (International Journal of Molecular Sciences, 2023)
